Measurements published in US20060030537A1, “Ceramide kinase and uses thereof” (priority 2004, published 2006).

Key:
Assay type in all cases: cell-based
[1] = test system: A549 cells
[2] = test system: L929 fibroblasts; test: AA release in L929 fibroblasts
Procedure: FIGS. 3A-3B. FIG. 3A. The effects of ceramide-1-phosphate on TXB2 synthesis. A549 cells (1×10^5) were treated with D-e-C16 ceramide-1-phosphate (1 μM) solubilized in 2% dodecane/98% ethanol (final concentration in treatments was 0.002% dodecane/0.098% ethanol (EtOH)) for the indicated times. The results are presented as % control of TXB2 controlled for equivalent number of cells by MTT assay. Data are representative of 3 separate determinations on 2 separate occasions. FIG. 3B. The effects of ceramide-1-phosphate on AA release and PGE2 synthesis in L929 fibroblasts. L929 cells (5×10^4) were labeled overnight with 5 μCi/mL [^3H]-arachidonic acid (5 nM). Cells were washed and placed in DMEM supplemented with 2% fetal bovine serum for two hours. […]
Quantification of arachidonic acid (AA) release: A549 cells (5×10^4) were labeled overnight with 5 μCi/mL [^3H]-AA (5 nM) (NEN). […] Following treatment, media was transferred to 1.5 mL polypropylene tubes, centrifuged at 10,000×g, and ^3H-AA cpm determined by scintillation counting. Results were controlled for equivalent number of cells quantified by MTT assay as described (Chalfant, C. E., Rathman, K., Pinkerman, R. L., Wood, R. E., Obeid, L. M., Ogretmen, B., and Hannun, Y. A. (2002) J. Biol. Chem. 277, 12587-12595) and by verification of total AA labeling by scintillation counting. […]

[3] = test system: A549 cells; test: Quantification of arachidonic acid (AA) release in A549 cells
Procedure: (§1) Cell Culture: A549 lung adenocarcinoma cells (epithelial-derived) were grown in low glucose DMEM (Invitrogen) supplemented with L-glutamine, 10% (v/v) fetal bovine serum (Invitrogen), 200 U/ml of penicillin G sodium, and 200 μg/ml of streptomycin sulfate. Cells were maintained under 80% confluency and standard incubator conditions (humidified atmosphere, 95% air, 5% CO2, 370 C). For treatment, cells were incubated for 2 hours in low glucose DMEM (Invitrogen) supplemented with L-glutamine, 2% (v/v) fetal bovine serum (Invitrogen), 200 U/ml of penicillin G sodium, and 200 μg/ml of streptomycin sulfate prior to the addition of agonist.
Quantification of arachidonic acid (AA) release: A549 cells (5×10^4) were labeled overnight with 5 μCi/mL [^3H]-AA (5 nM) (NEN). Cells were washed and incubated in DMEM supplemented with 2% fetal bovine serum for 2 hours. Following treatment, media was transferred to 1.5 mL polypropylene tubes, centrifuged at 10,000×g, and ^3H-AA cpm determined by scintillation counting. Results were controlled for equivalent number of cells quantified by MTT assay as described (Chalfant, C. E., Rathman, K., Pinkerman, R. L., Wood, R. E., Obeid, L. M., Ogretmen, B., and Hannun, Y. A. (2002) J. Biol. Chem. 277, 12587-12595) and by verification of total AA labeling by scintillation counting. For the experiments in FIG. 4, purified SMase D was obtained from Dr. Alfred H. Merrill, Jr., and SMase C (purified from Bacillus cereus) was obtained commercially from Sigma.
RNAi design and transfections: Knock-downs of ceramide kinase were performed essentially as described using sequence specific siRNA reagents (http:www.mpibpc.gwdg.de/abteilungen/100/105/sirna.html) (Lassus, P., Opitz-Araya, X., and Lazebnik, Y. (2002) Science 297, 1352-1354) using human ceramide kinase RNAi starting 142 nucleotides from start codon ([…]dTd (SEQ ID NO: 3) and […]dTd (SEQ ID NO:4)). All sequences were evaluated against the database using the NIH blast program to test for specificity (Xeragon, A Qiagen Company). A549 cells (3×10^4) were transfected with the 21-nucleotide duplexes using OligofectAMINE (Invitrogen) as recommended by the manufacturer. Following the 4 hour transfection, cells were treated and assayed for AA release or PGE2 synthesis at 26 hours post-transfection.

[4] = test system: A549 cells; test: Quantification of prostaglandin E2 synthesis in A549 cells (EIA); details: compared with inhibition of AA release
Procedure: as §1
Quantification of prostaglandin E2 and thromboxane B2 synthesis: For measurement of PGE2 and TXB2 levels, aliquots of media were taken at indicated time points and assayed according to manufacturer's instructions using the prostaglandin E2 and thromboxane B2 monoclonal EIA Kit from Cayman Chemical. Briefly, media containing PGE2 or TXB2 competes with PGE2 or TXB2 acetylcholinesterase conjugate for a limited amount of monoclonal antibody. The antibody-PGE2 or -TXB2 conjugate binds to a goat-anti-mouse antibody previously attached to the 96-well plate. The plate is washed to remove unbound reagents and then the substrate for acetylcholinesterase is provided. […] Results were controlled for equivalent number of cells quantified by MTT assay. […]

## ceramide kinase RNAi: 21-nucleotide duplex, human ceramide kinase RNAi starting 142 nucleotides from start codon (SEQ ID NO: 3 and 4) (chain 1 UGCCUGCUCUGUGCCUGUATT; chain 2 UACAGGCACAGAGCAGGCATT; chemistry not given here)
[1]
  effects on cell number: without effects
[2]
  inhibition of AA release in response to IL-1β: over 60%
[3]; A23187 1 μg/mL, 26 hours post-transfection
  inhibition of AA release in response to A23187: 72%
[3]; C-1-P 2.5 μM for 5 hours
  AA release in response to C-1-P treatment: no effect
[3]; IL-1β 2.5 ng/mL for 4 hours, 26 hours post-transfection
  inhibition of AA release in response to IL-1β: 78%
[3]; IL-1β or A23187, read-out: IC50 of inhibition of agonist-induced AA release
  IC50: ~30 nM
[4]
  inhibition of PGE2 synthesis in response to IL-1β and A23187: to the same extent
